System: postpartum sows
Assay: Single timed injection 96 hours post-weaning and single timed insemination without estrus detection in postpartum sows (Example 3)
Assay type: in vivo, swine
Conditions: 50 mcg at 96 hours post-weaning
Procedure: Approximately 170 postpartum sows were randomly divided into two equal groups comprised of controls and treated. Following weaning, the controls were detected for estrus and bred following the normal standard operating procedures for the farms on which they resided. The treated sows received a 50 mcg dose of deslorelin in SAIB at 96 hours post-weaning and were bred with a single insemination 28+/−2 hours later with no regard to estrus detection. The sows were examined for pregnancy by ultrasound at 21 days and slaughtered around 28 days post breeding. The entire reproductive tract was removed and corpora lutea and embryos were counted.

CCNC(=O)[C@@H]1CCCN1C(=O)[C@H](CCCN=C(N)N)NC(=O)[C@H](CC(C)C)NC(=O)[C@@H](Cc1c[nH]c2ccccc12)NC(=O)[C@H](Cc1ccc(O)cc1)NC(=O)[C@H](CO)NC(=O)[C@H](Cc1c[nH]c2ccccc12)NC(=O)[C@H](Cc1cnc[nH]1)NC(=O)[C@@H]1CCC(=O)N1 [Deslorelin, deslorelin]
Sows Pregnant (single insemination 28+/-2 hours later, 84 in group): 60
Embryo Survival (slaughter around 28 days post breeding): 64%
